In ChEMBL document CHEMBL2034869, “Mapping pilicide anti-virulence effect in Escherichia coli, a comprehensive structure-activity study” (Bioorg Med Chem, 2012):

Each molecule was assayed on Escherichia coli (assay: Inhibition of type-1 pili-dependent biofilm formation in Escherichia coli […]). Details: not given; call rule not given here.
Type: functional, organism-based

Question: How did the EC50 turn out when `COc1c(Cc2cccc3ccccc23)cc(=O)n2c1SC[C@H]2C(=O)[O-].[Li+]` was run?
Answer: Not Active

Question: With `COc1c(Cc2ccc3c(c2)OCO3)cc(=O)n2c1SC[C@H]2C(=O)O` as the molecule, how does the EC50 read?
Answer: Not Active

Question: For `Cc1cccc(OCc2cc(=O)n3c(c2-c2cccnc2)SC[C@H]3C(=O)[O-])c1C.[Li+]`, which EC50 is on record?
Answer: Not Active

Question: `COc1c(Cc2csc3ccccc23)cc(=O)n2c1SC[C@H]2C(=O)[O-].[Li+]` was tested. Which EC50 did it give?
Answer: Not Active

Question: For `O=C([O-])[C@@H]1CSc2c(-c3cccnc3)c(Cn3nnc4ccccc43)cc(=O)n21.[Li+]`, which EC50 is on record?
Answer: Not Active

Question: With `CC(C)c1c(Cn2nnc3ccccc32)cc(=O)n2c1SC[C@H]2C(=O)[O-].[Li+]` as the molecule, how does the EC50 read?
Answer: Not Active

Question: How did the EC50 turn out when `O=C([O-])[C@@H]1CSc2c(C3CC3)c(Cc3csc4ccccc34)cc(=O)n21.[Li+]` was run?
Answer: Not Active

Question: Which EC50 does the source give for `O=C([O-])[C@@H]1CSc2c(C3CC3)c(Cn3ccc4ccccc43)cc(=O)n21.[Li+]` here?
Answer: Not Active

Question: How did the EC50 turn out when `O=C([O-])[C@@H]1CSc2c(C3CC3)c(Cn3nnc4ccccc43)cc(=O)n21.[Li+]` was run?
Answer: Not Active

Question: How did the EC50 turn out when `O=C([O-])[C@@H]1CSc2c(-c3cccnc3)c(Cc3ccc4c(c3)OCO4)cc(=O)n21.[Li+]` was run?
Answer: Not Active

Question: With `COc1ccc2c(Cc3cc(=O)n4c(c3C3CC3)SC[C@H]4C(=O)O)cc(=O)oc2c1` as the molecule, how does the EC50 read?
Answer: Not Active

Question: With `COc1ccc2c(Cc3cc(=O)n4c(c3-c3cccs3)SC[C@H]4C(=O)O)cc(=O)oc2c1` as the molecule, how does the EC50 read?
Answer: Not Active

Question: For `COc1ccc2c(Cc3cc(=O)n4c(c3-c3ccccc3)SC[C@H]4C(=O)O)cc(=O)oc2c1`, which EC50 is on record?
Answer: Not Active

Same assay, conditions: Escherichia coli, UT189; read-out: EC50

Question: For `Cc1cccc(-c2sc3c(-c4cn(C)c5ccccc45)c(COc4cccc5ccccc45)cc(=O)n3c2C(=O)O)c1`, which EC50 is on record?
Answer: 86 µM

Question: For `Cc1cccc(CCc2cc(=O)n3c(c2-c2c[nH]c4ccccc24)SC[C@H]3C(=O)O)c1`, which EC50 is on record?
Answer: 74 µM

Question: For `Cn1cc(-c2c(COc3cccc4ccccc34)cc(=O)n3c2SC[C@H]3C(=O)NS(C)(=O)=O)c2ccccc21`, which EC50 is on record?
Answer: 9 µM

Question: Which EC50 does the source give for `O=C(O)[C@@H]1COc2c(-c3ccc4c(c3)OCO4)c(COc3cccc4ccccc34)cc(=O)n21` here?
Answer: 19 µM

Question: For `O=C(O)[C@@H]1CSc2c(-c3c[nH]c4ccccc34)c(Cc3cccc4ccccc34)cc(=O)n21`, which EC50 is on record?
Answer: 31 µM

Question: How did the EC50 turn out when `O=C(O)[C@@H]1[C@@H](c2ccccc2)Sc2c(-c3ccc4c(c3)OCO4)c(COc3cccc4ccccc34)cc(=O)n21` was run?
Answer: 1.2 µM

Question: How did the EC50 turn out when `O=C(O)[C@@H]1CSc2c(-c3ccc4c(c3)OCO4)c(COc3cccc4ccccc34)c(CN3CCOCC3)c(=O)n21` was run?
Answer: 32 µM

Question: Which EC50 does the source give for `O=C(O)[C@@H]1COc2c(-c3cccs3)c(Cc3cccc4ccccc34)cc(=O)n21` here?
Answer: 117 µM

Question: `CO[C@H]1Sc2c(-c3ccc4c(c3)OCO4)c(COc3cccc4ccccc34)cc(=O)n2[C@@H]1C(=O)O` was tested. Which EC50 did it give?
Answer: 30 µM

Question: Which EC50 does the source give for `Cc1cccc(OCc2cc(=O)n3c(c2-c2ccccc2)SC[C@H]3C(=O)O)c1C` here?
Answer: 36 µM

Question: With `O=C(O)[C@@H]1CSc2c(-c3c[nH]c4ccccc34)c(COc3cccc4ccccc34)cc(=O)n21` as the molecule, how does the EC50 read?
Answer: 12 µM

Question: For `O=C(O)[C@@H]1CSc2c(-c3cccc(C(F)(F)F)c3)c(Cc3cccc(COc4cccc5ccccc45)c3)cc(=O)n21`, which EC50 is on record?
Answer: 1.9 µM

Question: With `O=C(O)[C@@H]1CSc2c(C3CC3)c(Cc3cccc4ccccc34)cc(=O)n21` as the molecule, how does the EC50 read?
Answer: 250 µM

Question: How did the EC50 turn out when `Cc1cccc(-c2sc3c(-c4cn(C)c5ccccc45)c(COc4cccc5ccccc45)c(CN4CCOCC4)c(=O)n3c2C(=O)O)c1` was run?
Answer: 5 µM

Question: For `O=C(O)[C@@H]1CSc2c(-c3ccc4c(c3)OCO4)c(COc3cccc4ccccc34)cc(=O)n21`, which EC50 is on record?
Answer: 21 µM

Question: How did the EC50 turn out when `O=C(O)[C@@H]1CSc2c(-c3c[nH]c4ccccc34)c(Cc3ccc4c(c3)OCO4)cc(=O)n21` was run?
Answer: 39 µM

Question: Which EC50 does the source give for `Cc1cccc(-c2sc3c(-c4ccc5c(c4)OCO5)c(COc4cccc5ccccc45)cc(=O)n3c2C(=O)O)c1` here?
Answer: 20 µM

Question: `O=C(O)[C@@H]1CSc2c(-c3cccc(C(F)(F)F)c3)c(COc3cccc(Oc4ccccc4)c3)cc(=O)n21` was tested. Which EC50 did it give?
Answer: 4.3 µM

Question: For `Cn1cc(-c2c(COc3cccc4ccccc34)cc(=O)n3c2S[C@H](c2ccccc2)[C@H]3C(=O)O)c2ccccc21`, which EC50 is on record?
Answer: 1 µM

Question: How did the EC50 turn out when `CO[C@H]1Sc2c(-c3cccs3)c(Cc3cccc4ccccc34)cc(=O)n2[C@@H]1C(=O)O` was run?
Answer: 92 µM

Question: With `Cc1cccc(-c2sc3c(-c4ccc5c(c4)OCO5)c(COc4cccc5ccccc45)c(CN4CCOCC4)c(=O)n3c2C(=O)O)c1` as the molecule, how does the EC50 read?
Answer: 5 µM

Question: Which EC50 does the source give for `Cn1cc(-c2c(Cc3cccc(COc4cccc5ccccc45)c3)cc(=O)n3c2SC[C@H]3C(=O)O)c2ccccc21` here?
Answer: 1.1 µM

Question: For `O=C(O)[C@@H]1CSc2c(-c3cccs3)c(Cc3cccc4ccccc34)c(CO)c(=O)n21`, which EC50 is on record?
Answer: 250 µM

Question: Which EC50 does the source give for `Cc1cccc(CCc2cc(=O)n3c(c2C(C)C)SC[C@H]3C(=O)O)c1` here?
Answer: 100 µM

Question: Which EC50 does the source give for `O=C(O)[C@@H]1[C@@H](c2ccccc2)Sc2c(-c3cccs3)c(Cc3cccc4ccccc34)cc(=O)n21` here?
Answer: 0.4 µM

Question: How did the EC50 turn out when `O=C(O)[C@@H]1CSc2c(-c3ccc4c(c3)OCO4)c(COc3cccc4ccccc34)c(CO)c(=O)n21` was run?
Answer: 30 µM

Question: `Cn1cc(-c2c(COc3cccc4ccccc34)c(CO)c(=O)n3c2SC[C@H]3C(=O)O)c2ccccc21` was tested. Which EC50 did it give?
Answer: 16 µM

Question: With `O=C(O)[C@@H]1CSc2c(-c3cccs3)c(Cc3cccc4ccccc34)cc(=O)n21` as the molecule, how does the EC50 read?
Answer: 39 µM

Question: For `CO[C@H]1Sc2c(-c3cn(C)c4ccccc34)c(COc3cccc4ccccc34)cc(=O)n2[C@@H]1C(=O)O`, which EC50 is on record?
Answer: 2.5 µM

Question: How did the EC50 turn out when `O=C(O)[C@@H]1CSc2c(-c3ccccc3)c(Cc3cccc4ccccc34)cc(=O)n21` was run?
Answer: 40 µM

Question: For `Cn1cc(-c2c(COc3cccc4ccccc34)cc(=O)n3c2OC[C@H]3C(=O)O)c2ccccc21`, which EC50 is on record?
Answer: 18 µM

Question: With `O=C(O)[C@@H]1CSc2c(-c3cccs3)c(COc3cccc4ccccc34)cc(=O)n21` as the molecule, how does the EC50 read?
Answer: 14 µM

Question: With `O=C(O)[C@@H]1CSc2c(-c3cccs3)c(Cc3cccc4ccccc34)c(CN3CCOCC3)c(=O)n21` as the molecule, how does the EC50 read?
Answer: 88 µM

Question: Which EC50 does the source give for `Cc1cccc(OCc2cc(=O)n3c(c2-c2ccc4c(c2)OCO4)SC[C@H]3C(=O)O)c1C` here?
Answer: 27 µM

Question: With `Cn1cc(-c2c(COc3cccc(Oc4ccccc4)c3)cc(=O)n3c2SC[C@H]3C(=O)O)c2ccccc21` as the molecule, how does the EC50 read?
Answer: 2.1 µM

Question: `O=C(O)[C@@H]1CSc2c(-c3cccc(C(F)(F)F)c3)c(Cc3c4ccccc4cc4ccccc34)cc(=O)n21` was tested. Which EC50 did it give?
Answer: 3 µM

Question: For `Cn1cc(-c2c(COc3cccc4ccccc34)c(CN3CCOCC3)c(=O)n3c2SC[C@H]3C(=O)O)c2ccccc21`, which EC50 is on record?
Answer: 18 µM

Question: `Cn1cc(-c2c(COc3cccc4ccccc34)cc(=O)n3c2SC[C@H]3C(=O)O)c2ccccc21` was tested. Which EC50 did it give?
Answer: 10 µM

Question: `O=C(O)[C@@H]1CSc2c(C3CC3)c(Cc3cccc(COc4cccc5ccccc45)c3)cc(=O)n21` was tested. Which EC50 did it give?
Answer: 1.4 µM

Question: With `Cc1cccc(CCc2cc(=O)n3c(c2-c2ccccc2)SC[C@H]3C(=O)O)c1` as the molecule, how does the EC50 read?
Answer: 40 µM

Question: `CC(C)c1c(Cc2cccc3ccccc23)cc(=O)n2c1SC[C@H]2C(=O)O` was tested. Which EC50 did it give?
Answer: 100 µM

Question: For `O=C(O)[C@@H]1CSc2c(-c3ccc4c(c3)OCO4)c(Cc3csc4ccccc34)cc(=O)n21`, which EC50 is on record?
Answer: 67 µM

Question: How did the EC50 turn out when `O=C(O)[C@@H]1CSc2c(C3CC3)c(COc3cccc(Oc4ccccc4)c3)cc(=O)n21` was run?
Answer: 39 µM
